Experimental data as given in patent US10894808B2, “Polypeptide ligands specific for plasma kallikrein” (BicycleRD Limited, priority 2013, dated 2021).
Read-outs that look alike come from different tables or passages of the source. *1 amine or outer side, *2 acyl side, *3 side chain or, on linkers, in order; H or OH if unused. Where a SMILES comes first, the peptide text is derived from it. Bridges are numbered along the chain shown (N, C = ends). [ ]: non-standard residue; d: D form. TBMB = c1c(C[*:1])cc(C[*:3])cc1C[*:2]; hArg = N=C(N)NCCCC[C@H](N)C(=O)O; Aze = O=C(O)[C@@H]1CCN1

How the values were obtained:
rabbit kallikrein = rabbit kallikrein (Oryctolagus cuniculus, UniProt G1T127); experiment: Functional enzyme assay, inhibition of rabbit kallikrein; format: biochemical; conditions: read-out: Rabbit (Ki)
Procedure: (§1) Functional enzyme assays were conducted in 10 mM Tris HCl, 150 mM NaCl, 10 mM MgCl2, 1 mM CaCl2 and 1 mg/mL BSA (all Sigma UK) pH 7.4 at 25° C. in solid black 96 or 384 well plates. […] Release of AMC was measured using a Pherastar FS (BMG Labtech), excitation 360 nm, emission 460 nm. The rate of the linear phase of the reaction, typically 5 to 45 minutes, was calculated in MARS data analysis software (BMG labtech). The rate was then used to calculate the IC50 and Ki in Prism (GraphPad). A four parameter inhibition non-linear regression equation was used to calculate the IC50. […]
(§2) Peptides were dissolved as the TFA-salts in their powder form, and stock solutions were usually prepared in water. All solutions were centrifuged and filtered ([…] syringe filters) prior to absorption measurement at 280 nm. Extinction coefficients were calculated based on the Trp/Tyr content of the peptide, and that of TMB (the TMB core, when contained in a peptide, has an extinction coefficient of ˜300 M^−1 cm^−1).

human plasma kallikrein = target: T1, human plasma kallikrein (Homo sapiens, UniProt P03952); experiment: Functional enzyme assay, inhibition of human plasma kallikrein (Z-PheArg-AMC substrate); format: biochemical
T1 construct: purchased Stratech, UK
Procedure: as §1, §2

[1] = target: T2, biotinylated human plasma kallikrein (Homo sapiens, UniProt P03952); experiment: Homogeneous plate-based screening assay of TBMB-cyclised phage clones (signal:background); format: binding
T2 construct: The human kallikrein is non-recombinant and therefore the heavy chain is present; purchased Innovative Research, Novi, Mich., USA IHPKA; host or cells: from human plasma
Procedure: Assay of binding of individual clones: Library transformant colonies were picked at random and grown as individual cultures in 2TY broth containing selective antibiotic. The picked colonies were DNA-sequenced using a QIAgen PyroMark Q96 DNA sequencer to reveal the amino-acid substitution present in each clone. Where isolated, a clone of each unique substitution was assayed for human plasma kallikrein binding as follows. The phage-containing supernatant was harvested from the culture and phage were cyclised with tris bromomethyl benzene (TBMB) based on the methods of Heinis et al (Nature Chemical Biology vol. 5 pp 502-507 (2009)). The purified phage from this process were assayed for binding to biotinylated human plasma kallikrein using a homogeneous plate-based binding assay; assay read-out measured on a BMG Labtech Pherastar FS plate reader. The quantitative binding data from triplicate assay samples was averaged (mean) and expressed as signal:background (where background was a sample assayed with no target material). The signal:background was expressed as a % of the parallel parent sample. Error bars denote standard deviation of the mean. Assays shown are representative of at least 2 independent experiments. The assay data was correlated with the peptide sequences. Substitutions marked in grey were not tested (a clone was not isolated from the random library sampling). A sample of a non-binding (arbitrary) bicycle was assayed in parallel to illustrate the assay baseline.
Assay of binding of individual clones: Library transformant colonies, or selection output colonies, were picked and grown as individual cultures in 2TY broth containing selective antibiotic. The picked colonies were DNA-sequenced using a QIAgen PyroMark Q96 DNA sequencer to reveal the amino-acid substitution present in each clone, and were assayed for human plasma kallikrein binding as follows. The phage-containing supernatant was harvested from the culture and phage were cyclised with tris-bromomethylbenzene (TBMB) based on the methods of Heinis et al (Nature Chemical Biology vol. 5 pp 502-507 (2009)). The purified phage from this process were assayed for binding to biotinylated human plasma kallikrein using a homogeneous plate-based binding assay; assay read-out measured on a BMG Labtech Pherastar FS plate reader. The quantitative binding data from duplicate assay samples was averaged (mean) and expressed as signal:background. Assay data shown is representative of at least 2 independent experiments. The assay data was correlated with the peptide sequences.

rat plasma kallikrein = target: T3, rat plasma kallikrein (Rattus norvegicus, UniProt P14272); experiment: Functional enzyme assay, inhibition of rat plasma kallikrein (Z-PheArg-AMC substrate); format: biochemical
T3 construct: polyhistidine tag followed by proTEV cleavage site (pro-peptide) (N, cleaved yes); made in house; host or cells: HEK-293 (suspension-adapted), pEXPR-IBA42 vector
Procedure: as §1, §2

[2] = Aqueous solubility (qualitative); format: physicochemical; conditions: in words
[3] = Plasma stability profiling Method #2 (95% plasma, MALDI-TOF), rat plasma; format: in vitro ADME; conditions: qualitative, sampled up to 46 hrs
Procedure: (§3) To obtain stability data more rapidly, peptides were also assessed in 95% plasma. Here, PBS was omitted, and a 1-5 mM peptide stock (in DMSO) was directly diluted into plasma (i.e. 2.5 μL stock into 47.5 μL plasma), giving a final concentration of 50 μM. 5 μL samples were taken at appropriate time points and frozen at −80° C. For analysis, the samples were defrosted, mixed with 25 μL of 3:3:1 acetonitrile:methanol:water, and centrifuged at 13 k for 5 min. 5 μL of the peptide-containing supernatant was aspirated and mixed with 30 mM ammonium bicarbonate in a 1:1 mixture of acetonitrile:H2O. 1 μL of this was then spotted on the MALDI plate and analysed as described above. As above, it should be noted that this is a qualitative assay serves to detect relative changes in plasma stability.

[4] = Plasma stability profiling Method #2 (95% plasma, MALDI-TOF), human plasma; format: in vitro ADME; conditions: qualitative, sampled up to 46 hrs
Procedure: as §3

[5] = Table 1, synthetic peptides, read-out: Human (Ki)
[6] = Table 3, 06-254 affinity-matured library
[7] = Table 1, synthetic peptides, read-out: Rat (Ki)
[8] = Table 4, 06-259 affinity-matured library

T3 sequence (P14272 391-638 limits assumed): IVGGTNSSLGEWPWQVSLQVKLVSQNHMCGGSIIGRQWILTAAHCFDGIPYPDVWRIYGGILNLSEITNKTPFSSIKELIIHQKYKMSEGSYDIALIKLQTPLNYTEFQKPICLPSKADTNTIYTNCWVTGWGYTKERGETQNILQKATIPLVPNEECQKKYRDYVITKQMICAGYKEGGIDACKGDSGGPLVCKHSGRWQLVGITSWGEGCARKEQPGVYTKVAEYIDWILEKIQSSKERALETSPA
Chain of rabbit kallikrein (G1T127 20-629): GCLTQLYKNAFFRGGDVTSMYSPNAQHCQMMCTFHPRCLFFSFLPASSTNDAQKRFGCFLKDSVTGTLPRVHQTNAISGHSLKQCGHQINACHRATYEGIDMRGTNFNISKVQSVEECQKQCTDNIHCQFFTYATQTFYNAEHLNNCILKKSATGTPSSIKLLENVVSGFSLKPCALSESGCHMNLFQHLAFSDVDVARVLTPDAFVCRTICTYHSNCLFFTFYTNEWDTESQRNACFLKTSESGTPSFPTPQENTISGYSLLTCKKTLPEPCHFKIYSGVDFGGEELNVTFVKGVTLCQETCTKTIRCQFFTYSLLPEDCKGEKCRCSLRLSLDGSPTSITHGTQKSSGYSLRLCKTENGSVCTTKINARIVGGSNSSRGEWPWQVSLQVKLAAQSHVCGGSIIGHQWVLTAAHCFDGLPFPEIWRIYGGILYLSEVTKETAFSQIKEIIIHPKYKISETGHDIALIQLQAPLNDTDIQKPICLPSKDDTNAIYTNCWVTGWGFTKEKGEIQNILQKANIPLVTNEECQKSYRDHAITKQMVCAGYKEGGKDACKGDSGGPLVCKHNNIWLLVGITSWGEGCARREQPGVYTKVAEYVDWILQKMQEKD
T2 sequence (P03952 391-638 limits assumed): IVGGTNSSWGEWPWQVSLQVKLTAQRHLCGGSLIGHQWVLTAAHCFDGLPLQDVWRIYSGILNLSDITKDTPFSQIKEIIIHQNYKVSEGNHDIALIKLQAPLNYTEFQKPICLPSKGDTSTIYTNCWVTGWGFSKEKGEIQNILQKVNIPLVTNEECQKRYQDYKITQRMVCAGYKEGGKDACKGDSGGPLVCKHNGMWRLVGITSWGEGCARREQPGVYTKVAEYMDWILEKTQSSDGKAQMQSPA
T2 sequence (P03952 20-390 partner limits assumed): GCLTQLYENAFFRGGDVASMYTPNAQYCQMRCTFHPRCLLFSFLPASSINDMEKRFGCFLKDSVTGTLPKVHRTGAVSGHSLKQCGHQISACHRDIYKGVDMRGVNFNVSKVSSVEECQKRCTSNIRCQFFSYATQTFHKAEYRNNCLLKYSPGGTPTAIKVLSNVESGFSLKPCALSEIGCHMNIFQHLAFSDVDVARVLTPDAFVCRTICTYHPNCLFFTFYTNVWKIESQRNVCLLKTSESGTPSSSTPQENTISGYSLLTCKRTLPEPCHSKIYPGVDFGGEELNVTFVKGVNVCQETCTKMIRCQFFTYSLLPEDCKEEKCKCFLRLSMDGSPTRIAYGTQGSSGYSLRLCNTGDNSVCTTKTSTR
T1 sequence (P03952 391-638 limits assumed): as the sequence (P03952 391-638 limits assumed) above
T1 sequence (P03952 20-390 partner limits assumed): as the sequence (P03952 20-390 partner limits assumed) above

| Compound | Ki (rabbit kallikrein; Table 1, synthetic peptides) [nM] | Ki (rabbit kallikrein; Table 5) [nM] | Ki (human plasma kallikrein; [5]) [nM] | Ki (rat plasma kallikrein; [7]) [nM] | S:B (Signal:Background) [1, 8] | further results |
| --- | --- | --- | --- | --- | --- | --- |
| CC[C@H](C)[C@@H]1NC(=O)[C@@H]2CCCN2C(=O)[C@@H]2CCCN2C(=O)[C@H](CC(=O)O)NC(=O)[C@H](C)NC(=O)[C@H](CO)NC(=O)[C@@H]2CSCc3cc(cc(c3)CSC[C@@H](C(=O)N[C@@H](C)C(N)=O)NC1=O)CSC[C@H](NC(=O)[C@H](C)N)C(=O)N[C@@H](CC(N)=O)C(=O)N[C@@H](Cc1c[nH]cn1)C(=O)N[C@@H](Cc1c[nH]c3ccccc13)C(=O)N[C@@H](CC(N)=O)C(=O)N1CCC[C@H]1C(=O)N[C@@H](Cc1c[nH]c3ccccc13)C(=O)N2 [06-259-03] (H-ACNHWNPWCSADPPICA-NH2; linker 2-9-16 via TBMB; N-terminus and C-terminus assumed) | – | – | – | – | 49.82 | Ki (human plasma kallikrein; Table 5, read-out: Human (Ki)): 1.4 nM; Ki (rat plasma kallikrein; Table 5, read-out: Rat (Ki)): 8.2 nM |
| CC[C@H](C)[C@@H]1NC(=O)[C@H](CC(=O)O)NC(=O)[C@@H]2CCCN2C(=O)[C@H](Cc2ccc(O)cc2)NC(=O)[C@H](Cc2ccc(O)cc2)NC(=O)[C@H](C(C)C)NC(=O)[C@@H]2CSCc3cc(cc(c3)CSC[C@H](N)C(=O)N[C@@H](CO)C(=O)N[C@@H](Cc3ccccc3)C(=O)N3CC[C@H]3C(=O)N[C@@H](Cc3ccc(O)cc3)C(=O)N[C@@H](CCCCNC(=N)N)C(=O)N2)CSC[C@@H](C(N)=O)NC1=O [06-550 Aze3 HArg5, -Ci-S-F-[Aze]-Y-[hR]-Cii-V-Y-Y-P-D-I-Ciii-] (H-CSF[Aze]Y[hArg]CVYYPDIC-NH2; linker 1-7-14 via TBMB; N-terminus and C-terminus assumed) | – | – | – | – | – | aqueous solubility [2]: significantly reduced aqueous solubility |
| CC(C)C[C@@H]1NC(=O)[C@H](CC(=O)O)NC(=O)[C@H](CCC(N)=O)NC(=O)[C@H](Cc2c[nH]cn2)NC(=O)[C@H](CC(C)C)NC(=O)[C@@H]2CSCc3cc(cc(c3)CSC[C@H](N)C(=O)N[C@@H](CO)C(=O)N[C@@H](Cc3c[nH]c4ccccc34)C(=O)N3CCC[C@H]3C(=O)N[C@@H](C)C(=O)N[C@@H](CCCNC(=N)N)C(=O)N2)CSC[C@@H](C(N)=O)NC1=O [06-34-18, reference compound] (H-CSWPARCLHQDLC-NH2; linker 1-7-13 via TBMB; N-terminus and C-terminus assumed) | – | – | – | – | – | comparative stability in rat plasma [3]: largely disappeared; comparative stability in human plasma [4]: largely disappeared |

Further lines, with some results ahead:

| Ki (rabbit kallikrein; Table 1, synthetic peptides) [nM] | Ki (rabbit kallikrein; Table 5) [nM] | Ki (human plasma kallikrein; [5]) [nM] | Ki (rat plasma kallikrein; [7]) [nM] | S:B (Signal:Background) [1, 8] | Compound | further results |
| --- | --- | --- | --- | --- | --- | --- |
| 280 | 280 | 5.3 | 42.5 | – | CC[C@H](C)[C@@H]1NC(=O)[C@H]([C@@H](C)O)NC(=O)[C@H](C(C)C)NC(=O)[C@H](CC(C)C)NC(=O)[C@H](CC(=O)O)NC(=O)[C@@H]2CSCc3cc(cc(c3)CSC[C@@H](C(=O)N[C@@H](C)C(N)=O)NC(=O)[C@H](CO)NC1=O)CSC[C@H](NC(=O)[C@H](C)N)C(=O)N[C@@H](CCCCN)C(=O)N[C@@H](CC(N)=O)C(=O)N[C@@H](Cc1ccc(O)cc1)C(=O)N[C@@H](Cc1c[nH]c3ccccc13)C(=O)N[C@@H](CC(N)=O)C(=O)N1CCC[C@H]1C(=O)N2 [06-254] (H-ACKNYWNPCDLVTISCA-NH2; linker 2-9-16 via TBMB; N-terminus assumed) | S:B (Signal:Background) [1, 6]: 23.48 |
| – | – | 20.1 | 6.2 | 1.17 | CC(C)[C@@H]1NC(=O)[C@H](Cc2c[nH]c3ccccc23)NC(=O)CNC(=O)[C@@H]2CSCc3cc(cc(c3)CSC[C@@H](C(=O)N[C@@H](C)C(N)=O)NC(=O)[C@H](Cc3ccccc3)NC(=O)CNC(=O)CNC1=O)CSC[C@H](NC(=O)[C@H](C)N)C(=O)N[C@@H](CC(N)=O)C(=O)N[C@@H]([C@@H](C)O)C(=O)N[C@@H](Cc1c[nH]c3ccccc13)C(=O)N[C@@H](CC(N)=O)C(=O)N1CCC[C@H]1C(=O)N[C@@H](Cc1c[nH]c3ccccc13)C(=O)N2 [06-259] (H-ACNTWNPWCGWVGGFCA-NH2; linker 2-9-16 via TBMB; N-terminus and C-terminus assumed) | – |
| – | – | – | – | 14.05 | CC(C)C[C@@H]1NC(=O)[C@H](C)NC(=O)[C@H](CCC(=O)O)NC(=O)[C@H](CC(=O)O)NC(=O)[C@H](C)NC(=O)[C@@H]2CCCN2C(=O)[C@@H]2CSCc3cc(cc(c3)CSC[C@@H](C(=O)NCC(N)=O)NC1=O)CSC[C@H](NC(=O)[C@H](C)N)C(=O)N[C@@H](CO)C(=O)N[C@@H](CC(=O)O)C(=O)N[C@@H](CCCNC(=N)N)C(=O)N[C@@H](Cc1ccccc1)C(=O)N[C@@H](CCCNC(=N)N)C(=O)N[C@@H](CC(N)=O)C(=O)N2 [PK15, reference compound] (H-ACSDRFRNCPADEALCG-NH2; linker 2-9-16 via TBMB (inferred); N-terminus and C-terminus assumed) | Ki (human plasma kallikrein; text b212, read-out: Ki to human kallikrein): ~1.2 nM; S:B (Signal:Background) [1, 6]: 14.05; Ki (rat plasma kallikrein; text b212, read-out: Ki to rat kallikrein): ~500 nM |
| 1460 | 1460 | 6.6 | 2780 | – | CC(C)[C@@H]1NC(=O)[C@H](CCCNC(=N)N)NC(=O)[C@@H]2CSCc3cc(cc(c3)CSC[C@@H](C(=O)N[C@@H](C)C(N)=O)NC(=O)[C@H](Cc3ccc(O)cc3)NC(=O)[C@H](CCCNC(=N)N)NC(=O)[C@H]([C@@H](C)O)NC(=O)[C@H](CC(=O)O)NC1=O)CSC[C@H](NC(=O)[C@H](C)N)C(=O)N[C@@H](CCC(N)=O)C(=O)N[C@@H](CCCCN)C(=O)N[C@@H](Cc1ccccc1)C(=O)N[C@@H](CCC(=O)O)C(=O)N[C@@H](CO)C(=O)N[C@@H](CCCNC(=N)N)C(=O)N2 [06-256] (H-ACQKFESRCRVDTRYCA-NH2; linker 2-9-16 via TBMB; N-terminus assumed) | – |
| 331 | 331 | 4.3 | 5.2 | – | CC(C)C[C@@H]1NC(=O)[C@H](CC(N)=O)NC(=O)[C@H](CCC(=O)O)NC(=O)[C@H](Cc2c[nH]cn2)NC(=O)[C@H](CC(C)C)NC(=O)[C@@H]2CSCc3cc(cc(c3)CSC[C@H](NC(=O)[C@H](C)N)C(=O)N3CCC[C@H]3C(=O)N[C@@H](Cc3ccc(O)cc3)C(=O)N3CCC[C@H]3C(=O)N[C@@H](Cc3ccccc3)C(=O)N[C@@H](CCCNC(=N)N)C(=O)N2)CSC[C@@H](C(=O)N[C@@H](C)C(N)=O)NC1=O [06-258] (H-ACPYPFRCLHENLCA-NH2; linker 2-8-14 via TBMB; N-terminus and C-terminus assumed) | – |
